Data from patent US12466856B2, “Echinocandin analogues and preparation method therefor” (SHANGHAI SENHUI MEDICINE CO., LTD., priority 2019, dated 2025).
Read-outs that look alike come from different tables or passages of the source.

What was measured:
Type in all cases: cell-based
[1] = system: Candida albicans ATCC 90028; experiment: MIC assay (CLSI M27-A3), Candida albicans ATCC 90028; conditions: Candida albicans, ATCC90028, second batch
Method: (§1) After a test compound was serially diluted, an MIC (minimum inhibitory concentration) assay was performed on the standard Candida strain and an MEC (minimum effective concentration) assay on the standard Aspergillus strain. The MIC assay was performed according to the guidelines of the Clinical and Laboratory Standards Institute (CLSI M27-A3) and the MEC assay according to the guidelines of the Clinical and Laboratory Standards Institute (CLSI M38-A2).
(§2) The frozen strain was passaged at least twice, and a single colony was picked and resuspended in normal saline or sterile water in a tube. The suspension was vortexed and adjusted to 0.5 McF (1×10^6 to 5×10^6 CFU/mL) using a spectrophotometer at wavelength 530 nm. The suspension was 50-fold diluted with normal saline and then 20-fold diluted with 1×RPMI 1640 broth (1×10^3 to 5×10^3 CFU/mL). 10 μL of the suspension was applied to an SDA plate for colony counting, with a range from about 10 to 50 single colonies.
At this time, the bacterium concentration in each well should be 0.5×10^3 to 2.5×10^3 CFU/mL. […]
(§3) Yeast-type fungi: A disposable sealing film was applied to the 96-well plate, and the mixture was well mixed by shaking. Observation was performed through a plate reader with the naked eye. Comparisons were made to the growth control, and the minimum compound concentration corresponding to ≥50% growth inhibition was defined as MIC. Pictures were taken and saved using an automatic plate reader.

[2] = system: Candida albicans ATCC 44858; experiment: MIC assay (CLSI M27-A3), Candida albicans ATCC 44858; conditions: Candida albicans
Method: as §1, §2
(§4) At this time, the bacterium concentration in each well should be 0.5×10^3 to 2.5×10^3 CFU/mL.
(§5) For echinocandin drugs, Aspergillus was incubated at 28° C. for 21-26 h, and then the MEC results were read.
as §3

[3] = system: Candida glabrata ATCC 36583; experiment: MIC assay (CLSI M27-A3), Candida glabrata ATCC 36583; conditions: Nakaseomyces glabratus, ATCC36583; second batch; read-out: MIC, Candida glabrata ATCC 36583
Method: as §1, §2, §4, §5, §3

[4] = system: Candida albicans (azole drug-resistant strain) R357; experiment: MIC assay (CLSI M27-A3), Candida albicans azole drug-resistant strain R357; conditions: Candida albicans; second batch; read-out: MIC, Candida albicans (azole drug-resistant strain) R357
Method: as §1, §2, §4, §5, §3

[5] = system: Candida albicans (azole drug-resistant strain) R358; experiment: MIC assay (CLSI M27-A3), Candida albicans azole drug-resistant strain R358; conditions: Candida albicans; second batch; read-out: MIC, Candida albicans (azole drug-resistant strain) R358
Method: as §1, §2, §4, §5, §3

[6] = system: Candida tropicalis (amphotericin-resistant strain) ATCC 200956; experiment: microbe, parasite or virus in culture; conditions: Candida tropicalis, ATCC200956, read-out: MIC, Candida tropicalis (amphotericin-resistant strain) ATCC 200956
Method: as §1, §2, §4, §5, §3

[7] = 24 h, 35° C., read-out: MIC, Candida albicans ATCC 90028
[8] = + 50% human serum, read-out: MIC, Candida albicans + 50% human serum ATCC 90028
[9] = ATCC44858, second batch, read-out: MIC, Candida albicans ATCC 44858

CCCCCOc1ccc(-c2ccc(-c3ccc(C(=O)N[C@H]4C[C@@H](O)[C@@H](OC[C@H](C)[N+](C)(C)C)NC(=O)[C@@H]5[C@@H](O)[C@@H](C)CN5C(=O)[C@H]([C@@H](C)O)NC(=O)[C@H]([C@H](O)[C@@H](O)c5ccc(O)cc5)NC(=O)[C@@H]5C[C@@H](O)CN5C(=O)[C@H]([C@@H](C)O)NC4=O)cc3)cc2)cc1 [Example 22]
MIC [1, 7]: 0.25 µg/mL | MIC [1, 8]: 0.25 µg/mL | MIC [2, 9]: 0.25 µg/mL | MIC [3]: 0.5 µg/mL | MIC [4]: 0.5 µg/mL | MIC [5]: 0.25 µg/mL | MIC [6]: 0.25 µg/mL

CCCCCOc1ccc(-c2ccc(-c3ccc(C(=O)N[C@H]4C[C@@H](O)[C@@H](OC[C@@H](C)[N+](C)(C)C)NC(=O)[C@@H]5[C@@H](O)[C@@H](C)CN5C(=O)[C@H]([C@@H](C)O)NC(=O)[C@H]([C@H](O)[C@@H](O)c5ccc(O)cc5)NC(=O)[C@@H]5C[C@@H](O)CN5C(=O)[C@H]([C@@H](C)O)NC4=O)cc3)cc2)cc1 [Example 23]
MIC [1, 7]: 0.25 µg/mL | MIC [1, 8]: 0.25 µg/mL | MIC [2, 9]: 0.25 µg/mL | MIC [3]: 0.25 µg/mL | MIC [4]: 0.25 µg/mL | MIC [5]: 0.125 µg/mL | MIC [6]: 0.25 µg/mL

CCCCCOc1ccc(-c2ccc(-c3ccc(C(=O)N[C@H]4C[C@@H](O)[C@@H](O[C@@H](C)C[N+](C)(C)C)NC(=O)[C@@H]5[C@@H](O)[C@@H](C)CN5C(=O)[C@H]([C@@H](C)O)NC(=O)[C@H]([C@H](O)[C@@H](O)c5ccc(O)cc5)NC(=O)[C@@H]5C[C@@H](O)CN5C(=O)[C@H]([C@@H](C)O)NC4=O)cc3)cc2)cc1 [Example 24]
MIC [1, 7]: 0.25 µg/mL | MIC [1, 8]: 0.25 µg/mL | MIC ([2]; ATCC44858, read-out: MIC, Candida albicans ATCC 44858): 0.125 µg/mL | MIC [3]: 0.25 µg/mL | MIC [4]: 0.5 µg/mL | MIC [5]: 0.0625 µg/mL | MIC [6]: 0.125 µg/mL

CCCCCOc1ccc(-c2ccc(-c3ccc(C(=O)N[C@H]4C[C@@H](O)[C@@H](O[C@@H]5CC[N+](C)(C)C5)NC(=O)[C@@H]5[C@@H](O)[C@@H](C)CN5C(=O)[C@H]([C@@H](C)O)NC(=O)[C@H]([C@H](O)[C@@H](O)c5ccc(O)cc5)NC(=O)[C@@H]5C[C@@H](O)CN5C(=O)[C@H]([C@@H](C)O)NC4=O)cc3)cc2)cc1 [Example 25]
MIC [1, 7]: 0.25 µg/mL | MIC [1, 8]: 0.125 µg/mL | MIC [2, 9]: 0.125 µg/mL | MIC [3]: 0.25 µg/mL | MIC [4]: 0.25 µg/mL | MIC [5]: 0.25 µg/mL | MIC [6]: 0.25 µg/mL

CCCCCOc1ccc(-c2ccc(-c3ccc(C(=O)N[C@H]4C[C@@H](O)[C@@H](O[C@H]5CC[N+](C)(C)C5)NC(=O)[C@@H]5[C@@H](O)[C@@H](C)CN5C(=O)[C@H]([C@@H](C)O)NC(=O)[C@H]([C@H](O)[C@@H](O)c5ccc(O)cc5)NC(=O)[C@@H]5C[C@@H](O)CN5C(=O)[C@H]([C@@H](C)O)NC4=O)cc3)cc2)cc1 [Example 26]
MIC [1, 7]: 0.25 µg/mL | MIC [1, 8]: 0.25 µg/mL | MIC [2, 9]: 0.25 µg/mL | MIC [3]: 0.25 µg/mL | MIC [4]: 0.5 µg/mL | MIC [5]: 0.25 µg/mL | MIC [6]: 0.25 µg/mL
